Test results from ChEMBL document CHEMBL1125240, “Synthesis and biological activity of 5,11-methylenetetrahydro-5- deazahomofolic acid” (J Med Chem, 1991).

How the values were obtained:
[1] = biological target: T1, Trifunctional purine biosynthetic protein adenosine-3 (Homo sapiens, UniProt P22102); assay: Compound was evaluated for the ability to inhibit Glycinamide ribonucleotide formyltransferase from Manca cells.; type: cell-based
T1 sequence (P22102 whole entry): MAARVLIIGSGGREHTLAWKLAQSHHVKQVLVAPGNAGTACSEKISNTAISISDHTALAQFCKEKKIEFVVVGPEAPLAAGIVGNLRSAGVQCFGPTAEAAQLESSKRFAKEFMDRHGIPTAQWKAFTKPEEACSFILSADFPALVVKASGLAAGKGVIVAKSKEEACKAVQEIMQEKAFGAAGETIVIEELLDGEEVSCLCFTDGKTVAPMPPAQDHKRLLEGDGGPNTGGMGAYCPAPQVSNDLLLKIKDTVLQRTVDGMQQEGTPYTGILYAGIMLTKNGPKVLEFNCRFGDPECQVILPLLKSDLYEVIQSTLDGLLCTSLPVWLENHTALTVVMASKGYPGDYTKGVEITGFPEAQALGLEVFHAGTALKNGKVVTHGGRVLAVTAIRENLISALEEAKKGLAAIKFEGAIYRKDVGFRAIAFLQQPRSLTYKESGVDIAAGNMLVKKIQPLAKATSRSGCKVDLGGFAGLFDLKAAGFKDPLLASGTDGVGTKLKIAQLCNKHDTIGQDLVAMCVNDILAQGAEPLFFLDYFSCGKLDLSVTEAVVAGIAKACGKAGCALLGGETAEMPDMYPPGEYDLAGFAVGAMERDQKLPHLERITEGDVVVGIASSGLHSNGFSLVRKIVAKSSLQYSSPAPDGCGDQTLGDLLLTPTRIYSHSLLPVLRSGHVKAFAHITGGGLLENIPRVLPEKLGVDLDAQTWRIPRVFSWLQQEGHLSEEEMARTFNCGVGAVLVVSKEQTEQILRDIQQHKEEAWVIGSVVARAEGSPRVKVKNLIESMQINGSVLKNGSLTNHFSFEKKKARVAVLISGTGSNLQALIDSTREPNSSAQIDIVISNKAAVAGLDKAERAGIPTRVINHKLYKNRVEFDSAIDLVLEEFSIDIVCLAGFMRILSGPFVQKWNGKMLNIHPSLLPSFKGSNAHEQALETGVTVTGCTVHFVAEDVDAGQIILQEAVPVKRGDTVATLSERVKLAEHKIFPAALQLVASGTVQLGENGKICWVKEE

Manca = assay: Compound was evaluated for the ability to inhibit growth of Manca human lymphoma cells.; type: functional, cell-based
Thymidylate synthase [2] = biological target: T2, Thymidylate synthase (Lactobacillus casei, UniProt P00469); assay: Compound was evaluated for the ability to inhibit thymidylate synthase from Lactobacillus casei cells.; parameters: species or system Lacticaseibacillus casei
T2 sequence (P00469 whole entry): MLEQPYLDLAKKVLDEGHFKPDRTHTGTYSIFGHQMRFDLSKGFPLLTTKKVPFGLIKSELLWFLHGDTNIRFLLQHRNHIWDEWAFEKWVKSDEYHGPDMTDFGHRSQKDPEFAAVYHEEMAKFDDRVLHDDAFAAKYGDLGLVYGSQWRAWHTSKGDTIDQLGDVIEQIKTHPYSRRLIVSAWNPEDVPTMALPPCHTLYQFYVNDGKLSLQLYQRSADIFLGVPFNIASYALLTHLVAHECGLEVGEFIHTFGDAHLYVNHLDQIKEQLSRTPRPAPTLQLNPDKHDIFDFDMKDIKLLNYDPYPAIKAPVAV

Thymidylate synthase [3] = biological target: Thymidylate synthase (Homo sapiens, UniProt P04818); assay: Compound was evaluated for the ability to inhibit thymidylate synthase from Manca cells.; type: cell-based
Thymidylate synthase (Homo sapiens, UniProt P04818), sequence (P04818 whole entry): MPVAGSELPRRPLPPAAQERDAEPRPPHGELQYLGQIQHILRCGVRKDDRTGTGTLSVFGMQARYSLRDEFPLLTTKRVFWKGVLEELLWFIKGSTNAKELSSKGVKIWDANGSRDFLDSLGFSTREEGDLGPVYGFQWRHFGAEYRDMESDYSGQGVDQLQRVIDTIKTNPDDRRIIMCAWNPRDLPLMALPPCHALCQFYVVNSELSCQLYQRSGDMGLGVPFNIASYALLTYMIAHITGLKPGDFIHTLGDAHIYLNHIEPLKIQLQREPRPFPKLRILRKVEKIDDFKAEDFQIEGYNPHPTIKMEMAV

IC50 [1]: > 20 µM | IC50 (Thymidylate synthase [2]): > 100 µM | IC50 (Thymidylate synthase [3]): > 200 µM
SMILES: Nc1nc2c(c(=O)[nH]1)C1CN(c3ccc(C(=O)NC(CCC(=O)O)C(=O)O)cc3)CCC1CN2 (centres undefined)
IC50 (Manca): > 14 µM
